According to patent US10681908B2, “Molecules having pesticidal utility, and intermediates, compositions, and processes, related thereto” (Dow AgroSciences LLC, priority 2016, dated 2020):

What was measured:
Format in all cases: in vivo
[1] = test system: Beet Armyworm (Spodoptera exigua, LAPHEG); test: Bioassay on Beet Armyworm (BAW), 128-well diet tray assay; settings: 168 h, 50 μg/cm^2 on artificial diet, second instar larvae, five to seven days, 25° C., read-out: BAW % Control (or Mortality) rating
Outline: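 Mortality of second-instar larvae (one to five per well) was scored after five to seven days at 25 °C under 14:10 light-dark and averaged across eight wells. Each well's diet had received 50 μg/cm^2 test molecule from a 90:10 acetone-water solution, allowed to dry before infestation.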

[2] = test system: Cabbage Looper (Trichoplusia ni, TRIPNI); test: Bioassay on Cabbage Looper (CL), 128-well diet tray assay; settings: 168 h, 50 μg/cm^2 on artificial diet, second instar larvae, five to seven days, 25° C., read-out: CL % Control (or Mortality) rating
Outline: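 Percent mortality, averaged over eight wells, scored after five to seven days at 25° C. under 14:10 light-dark. Each well held 1–5 second-instar larvae on artificial diet treated with 50 μg/cm^2 test molecule applied in 90:10 acetone-water and dried.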

[3] = test system: Yellow Fever Mosquito (Aedes aegypti, AEDSAE); settings: about 1 day-old larvae, 3 days, room temperature, scored on mortality
Method: Example C: Bioassays on Yellow Fever Mosqurro (Aedes aegypti, AEDSAE) (“YFM”)
Certain molecules disclosed in this document were tested against YFM using procedures described in the following paragraph. In the reporting of the results, the “GPA & YFM Rating Table” was used (See Table Section).
Master plates containing 400 μg of a molecule dissolved in 100 μL of dimethyl sulfoxide (DMSO) (equivalent to a 4000 ppm solution) are used. A master plate of assembled molecules contains 15 μL per well. To this plate, 135 μL of a 90:10 water:acetone mixture is added to each well. A robot (Biomek® NXP Laboratory Automation Workstation) is programmed to dispense 15 μL aspirations from the master plate into an empty 96-well shallow plate (“daughter” plate). There are 6 reps (“daughter” plates) created per master. The created daughter plates are then immediately infested with YFM larvae.
The day before plates are to be treated, mosquito eggs are placed in Millipore water containing liver powder to begin hatching (4 g. into 400 mL). After the daughter plates are created using the robot, they are infested with 220 μL of the liver powder/larval mosquito mixture (about 1 day-old larvae). After plates are infested with mosquito larvae, a non-evaporative lid is used to cover the plate to reduce drying. Plates are held at room temperature for 3 days prior to grading. After 3 days, each well is observed and scored based on mortality. The results are indicated in the table entitled “Table ABC: Biological Results” (See Table Section).

## CC[S+]([O-])C[C@@H](C)NC(=O)c1ccc(/C(F)=C/C(c2cc(C)c(Cl)c(C)c2)C(F)(F)F)cc1C(F)(F)F (stereo partly drawn) [F44, 4-((Z)-3-(4-Chloro-3,5-dimethylphenyl)-1,4,4,4-tetrafluorobut-1-en-1-yl)-N-((2R)-1-(ethylsulfinyl)propan-2-yl)-2-(trifluoromethyl)benzamide]
[1]
  mortality at 50 µg/cm2: 50 to 100%
[2]
  mortality at 50 µg/cm2: 50 to 100%
[3]
  YFM % Control (or Mortality) rating: A (80-100)

## CCS(=O)(=O)C[C@@H](C)NC(=O)c1ccc(/C(F)=C/C(c2cc(C)c(Cl)c(C)c2)C(F)(F)F)cc1C(F)(F)F (stereo partly drawn) [F53, 4-((Z)-3-(4-Chloro-3,5-dimethylphenyl)-1,4,4,4-tetrafluorobut-1-en-1-yl)-N—((R)-1-(ethylsulfonyl)propan-2-yl)-2-(trifluoromethyl)benzamide]
[1]
  mortality at 50 µg/cm2: 50 to 100%
[2]
  mortality at 50 µg/cm2: 50 to 100%
[3]
  YFM % Control (or Mortality) rating: D (No activity noticed in this bioassay)

## C[C@H](CS(=O)(=O)CC(F)(F)F)NC(=O)c1ccc(/C(F)=C/C(c2ccc(Br)c(Cl)c2)C(F)(F)F)cc1C(F)(F)F (stereo partly drawn) [PF5, 4-((Z)-3-(4-Bromo-3-chlorophenyl)-1,4,4,4-tetrafluorobut-1-en-1-yl)-N—((R)-1-((2,2,2-trifluoroethyl)sulfonyl)propan-2-yl)-2-(trifluoromethyl)benzamide]
[1]
  mortality at 50 µg/cm2: 50 to 100%
[2]
  mortality at 50 µg/cm2: 50 to 100%
[3]
  YFM % Control (or Mortality) rating: B (More than 0-Less than 80)

## CCCC(F)(F)c1cc(Cl)cc(C(/C=C(\F)c2ccc(C(=O)N[C@H](C)CS(=O)(=O)CC(F)(F)F)c(C(F)(F)F)c2)C(F)(F)F)c1 (stereo partly drawn) [F143, 4-((Z)-3-(3-Chloro-5-(1,1-difluorobutyl)phenyl)-1,4,4,4-tetrafluorobut-1-en-1-yl)-N—((R)-1-((2,2,2-trifluoroethyl)sulfonyl)propan-2-yl)-2-(trifluoromethyl)benzamide]
[1]
  mortality at 50 µg/cm2: 50 to 100%
[2]
  mortality at 50 µg/cm2: 50 to 100%
[3]
  YFM % Control (or Mortality) rating: D (No activity noticed in this bioassay)

## C[C@H](C[S+]([O-])CC(F)(F)F)NC(=O)c1ccc(/C(F)=C/C(c2cc(Br)cc(Br)c2)C(F)(F)F)cc1C(F)(F)F (stereo partly drawn) [F31, 4-((Z)-3-(3,5-Dibromophenyl)-1,4,4,4-tetrafluorobut-1-en-1-yl)-N-((2R)-1-((2,2,2-trifluoroethyl)sulfinyl)propan-2-yl)-2-(trifluoromethyl)benzamide]
[1]
  mortality at 50 µg/cm2: 50 to 100%
[2]
  mortality at 50 µg/cm2: 50 to 100%
[3]
  YFM % Control (or Mortality) rating: B (More than 0-Less than 80)

## Cc1cc(C(/C=C(\F)c2ccc(C(=O)N[C@H](C)CS(=O)(=O)CC(F)(F)F)c(C(F)(F)F)c2)C(F)(F)F)cc(C)c1Cl (stereo partly drawn) [F35, 4-((Z)-3-(4-Chloro-3,5-dimethylphenyl)-1,4,4,4-tetrafluorobut-1-en-1-yl)-N—((R)-1-((2,2,2-trifluoroethyl)sulfonyl)propan-2-yl)-2-(trifluoromethyl)benzamide]
[1]
  mortality at 50 µg/cm2: 50 to 100%
[2]
  mortality at 50 µg/cm2: 50 to 100%
[3]
  YFM % Control (or Mortality) rating: A (80-100)

## C[C@H](C[S+]([O-])CC(F)(F)F)NC(=O)c1ccc(/C(F)=C/C(c2cc(Cl)cc(Cl)c2)C(F)(F)F)cc1C(F)(F)F (stereo partly drawn) [F27, 4-((Z)-3-(3,5-Dichlorophenyl)-1,4,4,4-tetrafluorobut-1-en-1-yl)-N-((2R)-1-((2,2,2-trifluoroethyl)sulfinyl)propan-2-yl)-2-(trifluoromethyl)benzamide]
[1]
  mortality at 50 µg/cm2: 50 to 100%
[2]
  mortality at 50 µg/cm2: 50 to 100%
[3]
  YFM % Control (or Mortality) rating: A (80-100)

## C[C@H](CSCC(F)(F)F)NC(=O)c1ccc(/C(F)=C/C(c2ccc(Cl)c(Cl)c2)C(F)(F)F)cc1C(F)(F)F (stereo partly drawn) [F20, 4-((Z)-3-(3,4-Dichlorophenyl)-1,4,4,4-tetrafluorobut-1-en-1-yl)-N—((R)-1-((2,2,2-trifluoroethyl)thio)propan-2-yl)-2-(trifluoromethyl)benzamide]
[1]
  mortality at 50 µg/cm2: 50 to 100%
[2]
  mortality at 50 µg/cm2: 50 to 100%
[3]
  YFM % Control (or Mortality) rating: D (No activity noticed in this bioassay)
